Tests used:
[1] = molecular target: panel of 391 kinases (Homo sapiens, UniProt P54753); assay: biochemical; type: biochemical; settings: EPHB3, MK-28 1 µM, ATP 1 µM
[2] = molecular target: panel of 391 kinases (Homo sapiens, UniProt O75914); assay: biochemical; type: biochemical; settings: PAK3, MK-28 1 µM, ATP 1 µM
[3] = molecular target: panel of 391 kinases (Homo sapiens, UniProt Q13554); assay: biochemical; type: biochemical; settings: CAMK2b, MK-28 1 µM, ATP 1 µM
[4] = molecular target: panel of 391 kinases (Homo sapiens, UniProt O75116); assay: biochemical; type: biochemical; settings: ROCK2, MK-28 1 µM, ATP 1 µM
[5] = molecular target: panel of 391 kinases (Homo sapiens, UniProt Q13188); assay: biochemical; type: biochemical; settings: MST2/STK3, MK-28 1 µM, ATP 1 µM
[6] = molecular target: panel of 391 kinases (Homo sapiens, UniProt O96017); assay: biochemical; type: biochemical; settings: CHK2, MK-28 1 µM, ATP 1 µM
[7] = molecular target: panel of 391 kinases (Homo sapiens, UniProt P08581); assay: biochemical; type: biochemical; settings: c-MET, MK-28 1 µM, ATP 1 µM
[8] = molecular target: panel of 391 kinases (Homo sapiens, UniProt Q9P0L2); assay: biochemical; type: biochemical; settings: MARK1, MK-28 1 µM, ATP 1 µM
[9] = molecular target: panel of 391 kinases (Homo sapiens, UniProt Q9Y4K4); assay: biochemical; type: biochemical; settings: KHS/MAP4K5, MK-28 1 µM, ATP 1 µM
[10] = molecular target: panel of 391 kinases (Homo sapiens, UniProt Q13470); assay: biochemical; type: biochemical; settings: TNK1, MK-28 1 µM, ATP 1 µM
[11] = molecular target: panel of 391 kinases (Homo sapiens, UniProt P42680); assay: biochemical; type: biochemical; settings: TEC, MK-28 1 µM, ATP 1 µM
[12] = molecular target: panel of 391 kinases (Homo sapiens, UniProt P23443); assay: biochemical; type: biochemical; settings: p70S6K/RPS6KB1, MK-28 1 µM, ATP 1 µM
[13] = molecular target: panel of 391 kinases (Homo sapiens, UniProt Q8N568); assay: biochemical; type: biochemical; settings: DCAMKL2, MK-28 1 µM, ATP 1 µM
[14] = molecular target: panel of 391 kinases (Homo sapiens, UniProt P49137); assay: biochemical; type: biochemical; settings: MAPKAPK2, MK-28 1 µM, ATP 1 µM
[15] = molecular target: panel of 391 kinases (Homo sapiens, UniProt Q8IU85); assay: biochemical; type: biochemical; settings: CAMK1d, MK-28 1 µM, ATP 1 µM
[16] = molecular target: panel of 391 kinases (Homo sapiens, UniProt Q9BYP7); assay: biochemical; type: biochemical; settings: WNK3, MK-28 1 µM, ATP 1 µM
[17] = molecular target: panel of 391 kinases (Homo sapiens, UniProt Q9UQM7); assay: biochemical; type: biochemical; settings: CAMK2a, MK-28 1 µM, ATP 1 µM
[18] = molecular target: panel of 391 kinases (Homo sapiens, UniProt O43781); assay: biochemical; type: biochemical; settings: DYRK3, MK-28 1 µM, ATP 1 µM
[19] = molecular target: panel of 391 kinases (Homo sapiens, UniProt P22455); assay: biochemical; type: biochemical; settings: FGFR4, MK-28 1 µM, ATP 1 µM
[20] = molecular target: panel of 391 kinases (Homo sapiens, UniProt Q9UM73); assay: biochemical; type: biochemical; settings: ALK, MK-28 1 µM, ATP 1 µM
[21] = molecular target: panel of 391 kinases (Homo sapiens, UniProt Q9UPZ9); assay: biochemical; type: biochemical; settings: LCK2/ICK, MK-28 1 µM, ATP 1 µM
[22] = molecular target: panel of 391 kinases (Homo sapiens, UniProt P51812); assay: biochemical; type: biochemical; settings: RSK2, MK-28 1 µM, ATP 1 µM
[23] = test system: R6/2 HD mouse model; assay: Ultrasonic vocalizations; type: in vivo, mice; settings: R6/2 TG males
Method: Ultrasonic vocalizations were recorded on males during the first 5 minutes of female exposure, 12 weeks after birth. Vocal emissions were monitored by an UltraSoundGate Condenser Microphone (CM 16; Avisoft Bioacoustics, Berlin, Germany) placed 16 cm above the floor of each male's cage. […]. […] Spectrograms were produced at 586 Hz of frequency resolution and 0.427 ms of time resolution. Figure plotted by MATLAB code.

[24] = test system: B6 wild type mice; assay: Toxicity study, 2 weeks continuous subcutaneous Alzet pump delivery; type: in vivo; settings: 6 mg/kg, 2 weeks continuous subcutaneous delivery
Method: Alzet pumps model 1004 (Alzet, USA), with a rate of 0.11 µl/hour and 28 days effective compound delivery was used. MK-28 compound was dissolved in 1:1 DMSO/PEG400 and prepared to delivery subcutaneously 6 mg/kg MK-28 for toxicity studies (n = 8) or 1 mg/kg for therapeutic evaluation in R6/2 mice (n = 72). For toxicity studies mice receiving six times the therapeutic dose of MK-28 or vehicle were weighed every two days for two consecutive weeks. […]. Alzet pumps were implanted in 4 weeks old mice and MK-28 was administered at 1 mg/kg with continuous dosing for 28 days. […]

[25] = read-out: % Enzyme Activity (relative to DMSO controls)

Q: How did the “% Enzyme Activity (relative to DMSO controls)” value [1] turn out when `CN(/N=C\c1ccc(O)c(O)c1)c1nc(-c2ccccc2)cc(-c2ccccc2)n1` [MK-28] was run?
A: 97.56%

Q: What about the remaining activity at 1 µM [1, 25] of the same molecule?
A: 99.2%

Q: And the “% Enzyme Activity (relative to DMSO controls)” value [2]?
A: 116.60%

Q: What about the remaining activity at 1 µM [2, 25] of the same molecule?
A: 117%

Q: And the “% Enzyme Activity (relative to DMSO controls)” value [3]?
A: 93.40%

Q: And the remaining activity at 1 µM [3, 25]?
A: 98%

Q: And the “% Enzyme Activity (relative to DMSO controls)” value [4]?
A: 90.11%

Q: And the remaining activity at 1 µM [4, 25]?
A: 90.5%

Q: And the “% Enzyme Activity (relative to DMSO controls)” value [5]?
A: 100.15%

Q: What about the remaining activity at 1 µM [5, 25] of the same molecule?
A: 101%

Q: And the “% Enzyme Activity (relative to DMSO controls)” value [6]?
A: 98.51%

Q: What about the remaining activity at 1 µM [6, 25] of the same molecule?
A: 101%

Q: What about the “% Enzyme Activity (relative to DMSO controls)” value [7] of the same molecule?
A: 96.37%

Q: And the remaining activity at 1 µM [7, 25]?
A: 102%

Q: What about the “% Enzyme Activity (relative to DMSO controls)” value [8] of the same molecule?
A: 94.22%

Q: And the remaining activity at 1 µM [8, 25]?
A: 94.5%

Q: What about the “% Enzyme Activity (relative to DMSO controls)” value [9] of the same molecule?
A: 84.30%

Q: And the remaining activity at 1 µM [9, 25]?
A: 86.9%

Q: And the “% Enzyme Activity (relative to DMSO controls)” value [10]?
A: 104.14%

Q: And the remaining activity at 1 µM [10, 25]?
A: 108%

Q: And the “% Enzyme Activity (relative to DMSO controls)” value [11]?
A: 100.49%

Q: And the remaining activity at 1 µM [11, 25]?
A: 101%

Q: And the “% Enzyme Activity (relative to DMSO controls)” value [12]?
A: 97.34%

Q: What about the remaining activity at 1 µM [12, 25] of the same molecule?
A: 99%

Q: And the “% Enzyme Activity (relative to DMSO controls)” value [13]?
A: 121.14%

Q: What about the remaining activity at 1 µM [13, 25] of the same molecule?
A: 122%

Q: And the “% Enzyme Activity (relative to DMSO controls)” value [14]?
A: 93.81%

Q: What about the remaining activity at 1 µM [14, 25] of the same molecule?
A: 94%

Q: And the “% Enzyme Activity (relative to DMSO controls)” value [15]?
A: 86.95%

Q: And the remaining activity at 1 µM [15, 25]?
A: 87.6%

Q: And the “% Enzyme Activity (relative to DMSO controls)” value [16]?
A: 104.23%

Q: What about the remaining activity at 1 µM [16, 25] of the same molecule?
A: 105%

Q: And the “% Enzyme Activity (relative to DMSO controls)” value [17]?
A: 100.97%

Q: And the remaining activity at 1 µM [17, 25]?
A: 103%

Q: What about the “% Enzyme Activity (relative to DMSO controls)” value [18] of the same molecule?
A: 96.41%

Q: And the remaining activity at 1 µM [18, 25]?
A: 97.5%

Q: What about the “% Enzyme Activity (relative to DMSO controls)” value [19] of the same molecule?
A: 100.59%

Q: And the remaining activity at 1 µM [19, 25]?
A: 105%

Q: What about the “% Enzyme Activity (relative to DMSO controls)” value [20] of the same molecule?
A: 82.73%

Q: What about the remaining activity at 1 µM [20, 25] of the same molecule?
A: 82.8%

Q: What about the “% Enzyme Activity (relative to DMSO controls)” value [21] of the same molecule?
A: 99.01%

Q: What about the remaining activity at 1 µM [21, 25] of the same molecule?
A: 99.2%

Q: And the “% Enzyme Activity (relative to DMSO controls)” value [22]?
A: 95.23%

Q: And the remaining activity at 1 µM [22, 25]?
A: 99.7%

Q: What about the vocalizations ([23]; 12 weeks after birth) of the same molecule?
A: 16 syllables in 5 min

Q: What about the “increase of vocalizations vs untreated TG” value ([23]; p = 0.059) of the same molecule?
A: three-fold increase

Q: What about the toxic effects [24] of the same molecule?
A: No toxic effects
